From patent US20250163057A1, “DCN-1 MODULATING COMPOUNDS AND METHODS OF USE THEREOF” (Cellarity, Inc., priority 2023, published 2025)
Read-outs that look alike come from different tables or passages of the source.

How the values were obtained:
[1] = test system: Cullin-3 (CUL3) neddylation; assay: AlphaLISA assay for Cullin-3 (CUL3) neddylation in TF 1 cells; format: cell-based; settings: 3 hours treatment
Procedure, shortened: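 Neddylated CUL3 was quantified by AlphaLISA in lysates of TF 1 cells exposed for 3 h to test compound in IMDM without supplements. Percent inhibition set between vehicle and 1 μM DI-1548 positive control; IC50 derived by Hill-equation fitting of dose-response curves.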

[2] = target: T1, DCN1 (DCUND1) protein PONY domain (Homo sapiens (Human), UniProt Q96GG9); assay: TR-FRET assay, DCN1 binding with FAM-labeled probe
Procedure, shortened: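 First, the E. coli-derived PONY domain was biotinylated and paired with streptavidin Tb cryptate. Compounds in 0.1% DMSO were then added to DCN1 and FAM-probe (5 nM/20 nM, or 0.31 nM/900 nM total with 800 nM unlabelled) in TritonX, 200 mM NaCl buffer. Finally, TR-FRET ratios were recorded at 1, 5 and 24 hrs.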

[3] = target: T1, DCN1 (DCUND1) protein PONY domain; assay: Off-rate measurement of reversible covalent molecules (jump dilution TR-FRET with Cy5 probe); format: binding; settings: for Category: binding mode category from off-rate assay
Source text: A typical covalent compound is assumed to stay bound to a protein for at least the life of that protein in the cell. In reality, there is a range of how long a covalent compounds remains bound before a reverse reaction takes place. Thus, some covalent bonds can be labeled as reversible as their reverse reaction takes place in a measurable amount of time under physiological conditions. The assay capitalizes on the range of covalent binders by using a high affinity covalent binder as a probe to displace the more reversible binders in an adaptation of the jump dilution method.
In this version of the jump dilution method, the increase in covalent probe binding over time was measured through a TR-FRET reaction between the covalent probe and the biotinylated target protein.
The recombinant form of the DCN1 (DCUND1) protein PONY domain was produced using an E. coli expression system at Viva Biotech (China). The DCN1 protein was biotinylated (EZ sulfo-NHS-LC-biotin; Thermofisher) for labeling with streptavidin terbium (Tb) cryptate in the reaction. This biotinylated protein was used in two forms of the TR-FRET assay as described below.
The off-rate measurement is executed in two steps based on the jump dilution method. […] The greatest dilution allowed within the constraints of the assay was chosen. These factors allow a competitive advantage for the covalent probe to replace the test compound when that compound releases from the target protein. The actual measure is the rate of increased TR-FRET signal as the covalent probe replaces the test compound over time. […] The resulting time dependent curve of the TR-FRET signal is fit to the following equation:
Y=Y0+(Plateau−Y0)*(1−exp(−K*x))
K is the rate constant (1/unit of time). The residence time is defined as the inverse of K, the rate constant. The half-life is calculated as ln(2)/K.

[4] = test system: fetal hemoglobin gene HBG1; assay: HBG1 Nanostring Assay in CD34+ HSPC erythroid differentiation culture; format: cell-based, human; settings: for EC50: HBG1 induction, Day10 of erythroid differentiation; for Nanostring Ymax obs (%): relative to a control compound (C1)
Procedure, shortened: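 HBG1 counts came from direct nCounter hybridization (67° C, 22 h) of day-10 lysates, normalized to ERCC positive controls and a housekeeping gene, giving EC50 and Ymax versus a reference compound. Compounds in 0.1% DMSO were present from day −2 while cells underwent EPO/SCF/IL-3 erythroid differentiation, with IL-3 dropped at day 7, at 37° C.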

DCN1 protein = DCN1 protein (Homo sapiens (Human), UniProt Q96GG9); assay: Intact Protein MS Analysis with the RapidFire-TOF System (covalent adduct formation); format: binding; settings: MS Emax; 400 nM DCN1, 3 hours at room temperature
Procedure, shortened: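 Tag-cleaved human DCN1 (400 nM) expressed in E. coli, in 25 mM Tris-HCl, 200 mM NaCl, 1 mM DTT, was incubated with 11 compound concentrations for 3 h at room temperature and quenched with 0.2% formic acid. Intact-protein Q-TOF MS with deconvolution detected the compound adduct mass.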

[5] = 24 hr after treatment with compound, read-out: TR FRET IC50 24 hr
[6] = read-out: TR FRET IC50 1 hr, 1 hr after treatment with compound
[7] = TR FRET IC50 1 hr (nM), 1 hr after treatment with compound

T1 sequence (Q96GG9 60-248): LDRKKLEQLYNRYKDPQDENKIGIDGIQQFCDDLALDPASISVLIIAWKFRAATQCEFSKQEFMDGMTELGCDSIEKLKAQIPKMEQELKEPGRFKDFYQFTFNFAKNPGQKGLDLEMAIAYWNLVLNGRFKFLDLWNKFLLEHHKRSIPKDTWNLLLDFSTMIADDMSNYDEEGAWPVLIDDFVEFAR
Sequence of DCN1 protein (Q96GG9 whole entry): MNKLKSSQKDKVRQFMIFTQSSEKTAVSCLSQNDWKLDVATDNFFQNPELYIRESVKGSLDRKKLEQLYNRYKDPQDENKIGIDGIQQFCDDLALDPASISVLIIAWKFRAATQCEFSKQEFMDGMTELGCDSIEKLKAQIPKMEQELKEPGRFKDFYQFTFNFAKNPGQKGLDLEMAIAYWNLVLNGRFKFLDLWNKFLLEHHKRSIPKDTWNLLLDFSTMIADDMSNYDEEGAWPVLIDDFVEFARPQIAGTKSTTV

| Structure (SMILES) | IC50 ([1]; Homo sapiens, TF-1, 3 h) [nM] | IC50 [2, 5] [nM] | IC50 [2, 6] [nM] | Category [3] | residence time ([3]; inverse of rate constant K, jump dilution TR-FRET) [min] | koff ([3]; jump dilution, Cy5 covalent probe 150 nM, TR-FRET) [s⁻¹] | half-life ([3]; ln(2)/K, jump dilution TR-FRET) [min] | IC50 [2, 7] [nM] | EC50 [4] [nM] | Nanostring Ymax obs (%) [4] | IC50 [1] [nM] | % Adduct Formation (DCN1 protein) | EC50 ([4]; Homo sapiens, 240 h) [nM] |
| --- | --- | --- | --- | --- | --- | --- | --- | --- | --- | --- | --- | --- | --- |
| CCN1C(=O)[C@@H](NC(=O)c2cccc(C(F)(F)F)c2)[C@@H](c2ccc(F)cc2)c2c(C(=O)N3CCS(=O)(=O)C[C@H]3C#N)nn(C3CCOCC3)c21 (mixture of isomers) [Compound I-436] | ≤ 100 | ≤ 200 | ≤ 200 | reversible covalent | 76.7 | 0.000238 | 53.14 |  |  |  |  |  |  |
| CCN1C(=O)[C@@H](NC(=O)c2cccc(C(F)(F)F)c2)[C@@H](C2CC2)c2c(C(=O)N3CCN(C)C[C@H]3C#N)nn(C3CCOCC3)c21 (single isomer, unassigned) [Compound I-430] | ≤ 100 | ≤ 200 |  | slow reversible |  |  |  | 200 to 1000 |  |  |  |  |  |
| CCN1C(=O)[C@@H](NC(=O)c2cccc(C(F)(F)F)c2)[C@@H](c2ccc(F)cc2)c2c(CN(C)C#N)nn(-c3ccccc3)c21 [Compound I-129] |  | ≤ 200 |  |  |  |  |  | 200 to 1000 | > 1000 | + (Nanostring Ymax greater than or equal to 0.0 and less than or equal to 50.0) | 100 to 1000 | +++ (MS Emax % adduct formation greater than 80.0 and less than or equal to 100.0) |  |
| C=C(CC(=O)NCc1nn(-c2ccccc2)c2c1[C@@H](c1ccc(F)cc1)[C@H](NC(=O)c1cccc(C(F)(F)F)c1)C(=O)N2CC)C(=O)OC [Compound I-132] | 100 to 1000 | ≤ 200 |  |  |  |  |  | 200 to 1000 |  | + (Nanostring Ymax greater than or equal to 0.0 and less than or equal to 50.0) |  | ++ (MS Emax % adduct formation greater than 30.0 and less than or equal to 80.0) | > 1000 |
| CCN1C(=O)[C@@H](NC(=O)c2cccc(C(F)(F)F)c2)[C@@H](c2ccc(F)cc2)c2c(C(=O)NCC#N)nn(-c3ccccc3)c21 [Compound I-148] | 100 to 1000 | 200 to 1000 |  |  |  |  |  | 1000 to 3000 |  | + (Nanostring Ymax greater than or equal to 0.0 and less than or equal to 50.0) |  | +++ (MS Emax % adduct formation greater than 80.0 and less than or equal to 100.0) |  |
| C=C(C(=O)O)c1nn(-c2ccccc2)c2c1[C@H](c1ccc(F)cc1)[C@H](NC(=O)c1cccc(C(F)(F)F)c1)C(=O)N2CC [Compound I-153, 2-((4S,5S)-7-ethyl-4-(4-fluorophenyl)-6-oxo-1-phenyl-5-(3-(trifluoromethyl)benzamido)-4,5,6,7-tetrahydro-1H-pyrazolo[3,4-b]pyridin-3-yl)acrylic acid] | ≤ 100 | ≤ 200 |  |  |  |  |  | 200 to 1000 |  | ++ (Nanostring Ymax greater than 50.0 and less than or equal to 100.0) |  | ++ (MS Emax % adduct formation greater than 30.0 and less than or equal to 80.0) | 100 to 1000 |
| C[C@@H](NC#N)c1nn(-c2ccccc2)c2c1[C@H](c1ccc(F)cc1)[C@H](NC(=O)c1cccc(C(F)(F)F)c1)C(=O)N2CCO [Compound I-274] | ≤ 100 | ≤ 200 | ≤ 200 |  |  |  |  |  |  | + (Nanostring Ymax greater than or equal to 0.0 and less than or equal to 50.0) |  | +++ (MS Emax % adduct formation greater than 80.0 and less than or equal to 100.0) |  |
| CCN1C(=O)[C@@H](NC(=O)c2cccc(C(F)(F)F)c2)[C@@H](c2ccc(F)cc2)c2c(C(=O)N3C[C@H](OC)C[C@H]3C#N)nn(C3CCOCC3)c21 [Compound I-358] | ≤ 100 | ≤ 200 | ≤ 200 |  |  |  |  |  |  | +++ (Nanostring Ymax greater than 100.0) |  | +++ (MS Emax % adduct formation greater than 80.0 and less than or equal to 100.0) | ≤ 100 |
| CCN1C(=O)[C@@H](NC(=O)c2cccc(C(F)(F)F)c2)[C@@H](c2ccc(F)cc2)c2c(C(=O)N3CC[C@H](OC)[C@H]3C#N)nn(C3CCOCC3)c21 [Compound I-359] | ≤ 100 | ≤ 200 | ≤ 200 |  |  |  |  |  |  | +++ (Nanostring Ymax greater than 100.0) |  | +++ (MS Emax % adduct formation greater than 80.0 and less than or equal to 100.0) | ≤ 100 |
| CCN1C(=O)[C@@H](NC(=O)c2cccc(C(F)(F)F)c2)[C@@H](c2ccc(F)cc2)c2c(C(=O)N3C[C@H](F)C[C@H]3C#N)nn(C3CCOCC3)c21 [Compound I-360] | ≤ 100 | ≤ 200 | ≤ 200 |  |  |  |  |  |  | +++ (Nanostring Ymax greater than 100.0) |  | +++ (MS Emax % adduct formation greater than 80.0 and less than or equal to 100.0) | ≤ 100 |
| CCN1C(=O)[C@@H](NC(=O)c2cccc(C(F)(F)F)c2)[C@@H](c2ccc(F)cc2)c2c(C(=O)N3CC(F)(F)C[C@H]3C#N)nn(C3CCOCC3)c21 [Compound I-361] | ≤ 100 | ≤ 200 | ≤ 200 |  |  |  |  |  |  | +++ (Nanostring Ymax greater than 100.0) |  | +++ (MS Emax % adduct formation greater than 80.0 and less than or equal to 100.0) | ≤ 100 |
| CCN1C(=O)[C@@H](NC(=O)c2cccc(C(F)(F)F)c2)[C@@H](c2ccc(F)cc2)c2c(C(=O)N3[C@H](C#N)C[C@H]4C[C@H]43)nn(C3COC3)c21 [Compound I-362, N-((4S,5S)-3-((1R,3S,5R)-3-cyano-2-azabicyclo[3.1.0]hexane-2-carbonyl)-7-ethyl-4-(4-fluorophenyl)-1-(oxetan-3-yl)-6-oxo-4,5,6,7-tetrahydro-1H-pyrazolo[3,4-b]pyridin-5-yl)-3-(trifluoromethyl)benzamide] | ≤ 100 | ≤ 200 | ≤ 200 |  |  |  |  |  |  | ++ (Nanostring Ymax greater than 50.0 and less than or equal to 100.0) |  | +++ (MS Emax % adduct formation greater than 80.0 and less than or equal to 100.0) | ≤ 100 |
| CCN1C(=O)[C@@H](NC(=O)c2cccc(C(F)(F)F)c2)[C@@H](c2ccc(F)cc2)c2c(C(=O)N3CCNC[C@@H]3C#N)nn(C3CCOCC3)c21 [Compound I-364] | ≤ 100 | ≤ 200 | ≤ 200 |  |  |  |  |  |  | ++ (Nanostring Ymax greater than 50.0 and less than or equal to 100.0) |  | +++ (MS Emax % adduct formation greater than 80.0 and less than or equal to 100.0) | ≤ 100 |
| CCN1C(=O)[C@@H](NC(=O)c2cccc(C(F)(F)F)c2)[C@@H](C2CC2)c2c(C(=O)N(C)CC#N)nn(C3CCOCC3)c21 [Compound I-374] | ≤ 100 | ≤ 200 |  |  |  |  |  | 200 to 1000 |  | +++ (Nanostring Ymax greater than 100.0) |  | +++ (MS Emax % adduct formation greater than 80.0 and less than or equal to 100.0) | ≤ 100 |
| CCN1C(=O)[C@@H](NC(=O)c2cccc(C(F)(F)F)c2)[C@@H](C2CC2)c2c(C(=O)N3CC(F)(F)C[C@H]3C#N)nn(C3CCOCC3)c21 [Compound I-378] | ≤ 100 | ≤ 200 | ≤ 200 |  |  |  |  |  |  | ++ (Nanostring Ymax greater than 50.0 and less than or equal to 100.0) |  | +++ (MS Emax % adduct formation greater than 80.0 and less than or equal to 100.0) | ≤ 100 |
